From ChEMBL document CHEMBL4049439, “Synthesis and Characterization of Tetrahydropyran-Based Bacterial Topoisomerase Inhibitors with Antibacterial Activity against Gram-Negative Bacteria” (J Med Chem, 2017)
Converted amounts (≈) assume the structure as drawn. The source made the active and inactive calls. The rule behind the calls is not given here.

How the values were obtained:
[1] = (§1) Inhibition of wild-type Acinetobacter baumannii DNA topoisomerase-4 mediated supercoiled pBR322 DNA relaxation by ethidium bromide based agarose gel electrophoresis
[2] = Inhibition of wild-type Escherichia coli DNA topoisomerase-4 mediated supercoiled pBR322 DNA relaxation by ethidium bromide based agarose gel electrophoresis
Staphylococcus aureus = assay: Antibacterial activity against Staphylococcus aureus ATCC 29213 by CLSI broth microdilution method; format: functional
Escherichia coli = assay: Antibacterial activity against wild-type Escherichia coli ATCC 25922 by CLSI broth microdilution method; format: functional
Acinetobacter baumannii [3] = assay: Antibacterial activity against fluoroquinolone-resistant Acinetobacter baumannii T6474 by CLSI broth microdilution method; format: functional
Pseudomonas aeruginosa [4] = assay: Antibacterial activity against Pseudomonas aeruginosa ATCC 27853 by CLSI broth microdilution method; format: functional
[5] = Inhibition of wild-type Escherichia coli DNA gyrase supercoiling activity using relaxed pBR322 DNA as substrate by ethidium bromide based agarose gel electrophoresis
[6] = (§2) Inhibition of wild-type Acinetobacter baumannii DNA gyrase supercoiling activity using relaxed pBR322 DNA as substrate by ethidium bromide based agarose gel electrophoresis
[7] = (§3) Inhibition of wild-type Pseudomonas aeruginosa DNA gyrase supercoiling activity using relaxed pBR322 DNA as substrate by ethidium bromide based agarose gel electrophoresis
[8] = (§4) Inhibition of wild-type Pseudomonas aeruginosa DNA topoisomerase-4 mediated supercoiled pBR322 DNA relaxation by ethidium bromide based agarose gel electrophoresis
[9] = Lipophilicity, log D of the compound at pH 7.4; format: physicochemical; details: buffer
Acinetobacter baumannii [10] = assay: as §1
Acinetobacter baumannii [11] = assay: as §2
Pseudomonas aeruginosa [12] = assay: as §3
Pseudomonas aeruginosa [13] = assay: as §4

SMILES	IC50 [1]	IC50 [2]	MIC (Staphylococcus aureus)	MIC (Escherichia coli)	MIC (Acinetobacter baumannii [3])	MIC (Pseudomonas aeruginosa [4])	IC50 [5]	IC50 [6]	IC50 [7]	IC50 [8]	logD [9]	inhibition (Acinetobacter baumannii [10])	inhibition (Acinetobacter baumannii [11])	inhibition (Pseudomonas aeruginosa [12])	inhibition (Pseudomonas aeruginosa [13])
COc1ccc2ccc(=O)n(C[C@H](N)[C@@H]3CC[C@@H](NCc4ccc5c(n4)NC(=O)CO5)CO3)c2c1	125 nM	30 nM	0.25 µg/mL (≈ 0.521 µM)	0.25 µg/mL (≈ 0.521 µM)	2 µg/mL (≈ 4.17 µM)	4 µg/mL (≈ 8.34 µM)	125 nM	125 nM	125 nM	500 nM					
COc1ccc2ncc(=O)n(C[C@H](N)[C@@H]3CC[C@@H](NCc4ccc5c(n4)NC(=O)CO5)CO3)c2n1	125 nM	125 nM	0.125 µg/mL (≈ 0.26 µM)	0.5 µg/mL (≈ 1.04 µM)	2 µg/mL (≈ 4.15 µM)	2 µg/mL (≈ 4.15 µM)	500 nM	125 nM	125 nM	30 nM					
COc1cnc2ccc(=O)n(C[C@H](N)[C@@H]3CC[C@@H](NCc4ccc5c(n4)NC(=O)CO5)CO3)c2n1	30 nM	30 nM	0.5 µg/mL (≈ 1.04 µM)	0.5 µg/mL (≈ 1.04 µM)	2 µg/mL (≈ 4.15 µM)	1 µg/mL (≈ 2.08 µM)	500 nM	125 nM	125 nM	30 nM					
COc1ccc2ncc(F)c(C[C@H](O)[C@@H]3CC[C@@H](NCc4cc5c(nn4)OCCS5)CO3)c2n1	125 nM				2 µg/mL (≈ 4.1 µM)			2000 nM	500 nM	125 nM					
COc1ccc2ccc(=O)n(C[C@H](O)[C@@H]3CC[C@@H](NCc4cc5c(nn4)OCCS5)CO3)c2n1	500 nM	125 nM	0.031 µg/mL (≈ 0.0638 µM)	> 8 µg/mL	8 µg/mL (≈ 16.5 µM)	> 8 µg/mL	8000 nM	2000 nM	500 nM	125 nM					
COc1ccc2ccc(=O)n(C[C@H](O)[C@@H]3CC[C@@H](NCc4cc5c(cn4)OCCO5)CO3)c2n1	125 nM	125 nM	≤ 0.03 µg/mL	4 µg/mL (≈ 8.54 µM)	0.5 µg/mL (≈ 1.07 µM)	> 8 µg/mL	8000 nM	125 nM	125 nM	125 nM					
COc1ccc2ncc(=O)n(C[C@H](N)[C@@H]3CC[C@@H](NCc4ccc5c(n4)NC(=O)CO5)CO3)c2c1	125 nM	30 nM	0.063 µg/mL (≈ 0.131 µM)	0.25 µg/mL (≈ 0.52 µM)	2 µg/mL (≈ 4.16 µM)	4 µg/mL (≈ 8.32 µM)	500 nM	30 nM	30 nM	30 nM					
COc1ccc2ncc(F)c(C[C@H](O)C34CCC(NCc5ccc6c(n5)NC(=O)CO6)(CC3)CO4)c2n1											2				
COc1ccc2ccc(=O)n(C[C@H](O)[C@@H]3CC[C@@H](NCc4cc5c(nn4)OCCO5)CO3)c2n1	8000 nM	2000 nM	0.06 µg/mL (≈ 0.128 µM)	> 8 µg/mL	> 8 µg/mL	> 8 µg/mL	32000 nM	8000 nM	8000 nM	500 nM					
COc1ccc2ncc(F)c(C[C@@H](N)[C@@H]3CC[C@@H](NCc4ccc5c(n4)NC(=O)CO5)CO3)c2n1	125 nM	125 nM	1 µg/mL (≈ 2.07 µM)	1 µg/mL (≈ 2.07 µM)	1 µg/mL (≈ 2.07 µM)	> 8 µg/mL	500 nM	500 nM	125 nM	125 nM					
COc1ccc2nccc(CC(N)[C@@H]3CC[C@@H](NCc4ccc5c(n4)NC(=O)CO5)CO3)c2n1 (mixture of isomers)	500 nM	500 nM	0.125 µg/mL	0.125 µg/mL	0.5 µg/mL	2 µg/mL	500 nM	500 nM	500 nM	500 nM					
COc1ccc2ccc(=O)n(C[C@H](O)[C@@H]3CC[C@@H](NCc4cc5c(cn4)OCCS5)CO3)c2n1	30 nM	30 nM	≤ 0.03 µg/mL	4 µg/mL (≈ 8.25 µM)	0.5 µg/mL (≈ 1.03 µM)	> 8 µg/mL	500 nM	125 nM	500 nM	≤ 10 nM					
COc1ccc2ccc(F)c(C[C@H](N)[C@@H]3CC[C@@H](NCc4ccc5c(n4)NC(=O)CO5)CO3)c2n1	30 nM	≤ 10 nM	0.03 µg/mL (≈ 0.0623 µM)	≤ 0.03 µg/mL	≤ 0.03 µg/mL	1 µg/mL (≈ 2.08 µM)	30 nM	30 nM	30 nM	30 nM					
COc1cnc2ccc(=O)n(C[C@H](N)[C@@H]3CC[C@@H](NCc4ccc5c(n4)NC(=O)CO5)CO3)c2c1	125 nM	30 nM	1 µg/mL (≈ 2.08 µM)	1 µg/mL (≈ 2.08 µM)	4 µg/mL (≈ 8.32 µM)	4 µg/mL (≈ 8.32 µM)	500 nM	30 nM	30 nM	30 nM					
COc1ccc2nccc(C(N)C[C@@H]3CC[C@@H](NCc4ccc5c(n4)NC(=O)CO5)CO3)c2n1 (mixture of isomers)	125 nM	125 nM	2 µg/mL	1 µg/mL	8 µg/mL	8 µg/mL	8000 nM	2000 nM	500 nM	125 nM					
COc1ccc2nccc(C[C@H](N)[C@@H]3CC[C@@H](NCc4ccc5c(n4)NC(=O)CO5)CO3)c2n1	30 nM	30 nM	0.06 µg/mL (≈ 0.129 µM)	0.125 µg/mL (≈ 0.269 µM)	0.25 µg/mL (≈ 0.538 µM)	0.5 µg/mL (≈ 1.08 µM)	125 nM	125 nM	125 nM	30 nM					
COc1ccc2nccc([C@H](N)C[C@@H]3CC[C@@H](NCc4ccc5c(n4)NC(=O)CO5)CO3)c2n1												inactive	inactive	inactive	inactive
O=C(O)c1cn(C2CC2)c2cc(N3CCNCC3)c(F)cc2c1=O [CIPROFLOXACIN]	32000 nM							2000 nM	500 nM	8000 nM					
COc1ccc2nccc([C@@H](N)C[C@@H]3CC[C@@H](NCc4ccc5c(n4)NC(=O)CO5)CO3)c2n1												inactive	inactive	inactive	inactive
